In patent US20210023233A1, “ANTIBODY-PEPTIDE COMPLEXES AND USES THEREOF” (priority 2018, published 2021):

Test system: CD20+ Daudi human lymphoma cells
Test: Toxicity of cisplatin-loaded peptide: Daudi cell proliferation/survival after overnight treatment
Assay type: cell-based
Details: treated overnight, 100 μg/ml
Description: FIG. 4 is a graph plotting the toxicity of cisplatin-loaded peptide. CD20+ Daudi human lymphoma cells were treated overnight with 100 μg/ml ABRAXANE® (ABX), 100 μg/ml cisplatin (CIS), 1 mg/ml rituximab (RIT), 1 mg/ml peptide only (PEP), 100 μg/ml peptide-loaded cisplatin (PEP+CIS), peptide with rituximab (PEP+RIT), or 100 μg/ml peptide-loaded cisplatin with rituximab (PEP+CIS+RIT).
CD20+ Daudi human lymphoma cells were treated overnight with 100 μg/ml ABRAXANE® (ABX), 100 μg/ml cisplatin (CIS), 1 mg/ml rituximab (RIT), 1 mg/ml peptide (SEQ ID NO:2) only (PEP), 100 μg/ml peptide-loaded cisplatin (PEP+CIS), peptide with rituximab (PEP+RIT), or 100 μg/ml peptide-loaded cisplatin with rituximab (PEP+CIS+RIT), and cell survival was assessed (FIG. 4).

Compound	Toxicity to Daudi cells compared with cisplatin-containing peptide (in words)	Daudi proliferation, % of the total (control) proliferation [%]
N.N.[Cl][Pt][Cl] [cisplatin]	equivalent	–
PEP+CIS (VVLCQLCVLHEKTPVSDR)	–	80
